Data: patent US10517889B2, “Modulators of SMAD7 expression” (Ionis Pharmaceuticals, Inc., priority 2017, dated 2019)
Strand notation (5' to 3'): a small letter for the sugar, then the base; units joined by * are phosphorothioate-linked, units joined directly phosphodiester-linked; [ ] holds rarer units or linkages, { } end groups; capitals alone tell only the bases. k = constrained ethyl (cEt); [5mC] = 5-methylcytosine; d = 2'-deoxy (DNA)

Test system: human SMAD7 mRNA
Assay: Antisense inhibition of human SMAD7 mRNA expression in Hep3B cells by 3-10-3 cEt gapmers, 10,000 nM, electroporation (Example 2)
Assay type: cell-based
Conditions: Hep3B cells, electroporation with 10,000 nM antisense oligonucleotide, approximately 24 hours; for % Inhibition: SMAD7 mRNA by RT-PCR (RTS5062), relative to untreated control cells; for % inhibition of SMAD7 mRNA expression: primer probe set RTS5062, relative to untreated control cells
Summary of the method: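 Hep3B, 20,000 cells/well; electroporation, 10,000 nM ASO; ~24 h. Readout: SMAD7 mRNA by qRT-PCR (RTS5062), RIBOGREEN-normalised; % inhibition vs untreated.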

Row | Substance | % Inhibition [%] | % inhibition of SMAD7 mRNA expression [%]
1 | 798734 (antisense kG*k[5mC]*k[5mC]*d[5mC]*dG*d[5mC]*dG*dG*d[5mC]*dT*dG*dG*d[5mC]*kG*kG*kG) [compound 798734] | 0 | –
2 | 798735 (antisense k[5mC]*k[5mC]*k[5mC]*d[5mC]*d[5mC]*dG*dG*d[5mC]*d[5mC]*dG*d[5mC]*dG*d[5mC]*k[5mC]*kG*kG) [compound 798735] | 0 | –
3 | 798736 (antisense kG*k[5mC]*kG*d[5mC]*d[5mC]*d[5mC]*d[5mC]*d[5mC]*dG*dG*d[5mC]*d[5mC]*dG*k[5mC]*kG*k[5mC]) [compound 798736] | 0 | –
4 | 798737 (antisense k[5mC]*kA*kG*dA*dT*d[5mC]*d[5mC]*dG*d[5mC]*d[5mC]*dT*d[5mC]*dG*kG*k[5mC]*kG) [compound 798737] | 2 | –
5 | 798738 (antisense k[5mC]*kT*kT*d[5mC]*dA*dG*dA*dT*d[5mC]*d[5mC]*dG*d[5mC]*d[5mC]*kT*k[5mC]*kG) [compound 798738] | 25 | –
6 | 798739 (antisense k[5mC]*kG*k[5mC]*d[5mC]*dT*dT*d[5mC]*dA*dG*dA*dT*d[5mC]*d[5mC]*kG*k[5mC]*k[5mC]) [compound 798739] | 37 | –
7 | 798740 (antisense kT*kT*kG*dA*dG*d[5mC]*dA*d[5mC]*d[5mC]*dG*dA*dG*dT*kG*k[5mC]*kG) [compound 798740] | 56 | –
8 | 798741 (antisense k[5mC]*kT*kT*d[5mC]*dA*dG*dT*dT*dT*d[5mC]*dT*dT*dG*kA*kG*k[5mC]) [compound 798741] | 17 | –
9 | 798742 (antisense k[5mC]*kT*k[5mC]*d[5mC]*dT*dT*d[5mC]*dA*dG*dT*dT*dT*d[5mC]*kT*kT*kG) [compound 798742] | – | 30
10 | 798743 (antisense kT*kG*k[5mC]*d[5mC]*dG*d[5mC]*dT*d[5mC]*d[5mC]*dT*dT*d[5mC]*dA*kG*kT*kT) [compound 798743] | – | 19
11 | 798744 (antisense kA*kG*k[5mC]*dT*dG*d[5mC]*d[5mC]*dG*d[5mC]*dT*d[5mC]*d[5mC]*dT*kT*k[5mC]*kA) [compound 798744] | – | 12
12 | 798745 (antisense kG*k[5mC]*kA*dG*d[5mC]*dT*d[5mC]*d[5mC]*dA*dG*d[5mC]*dT*dG*k[5mC]*k[5mC]*kG) [compound 798745] | – | 0
13 | 798746 (antisense kT*kG*kG*dA*dG*d[5mC]*dA*dG*d[5mC]*dA*dG*d[5mC]*dT*k[5mC]*k[5mC]*kA) [compound 798746] | – | 30
14 | 798747 (antisense k[5mC]*kG*kG*d[5mC]*d[5mC]*dT*dG*dG*dA*dG*d[5mC]*dA*dG*k[5mC]*kA*kG) [compound 798747] | – | 14
15 | 798748 (antisense k[5mC]*kT*k[5mC]*d[5mC]*dA*d[5mC]*dG*dG*d[5mC]*d[5mC]*dT*dG*dG*kA*kG*k[5mC]) [compound 798748] | – | 58
16 | 798749 (antisense kG*kG*kA*d[5mC]*dT*d[5mC]*d[5mC]*dA*d[5mC]*dG*dG*d[5mC]*d[5mC]*kT*kG*kG) [compound 798749] | – | 63
17 | 798750 (antisense kA*kG*kG*dA*dG*dG*d[5mC]*dA*d[5mC]*dG*d[5mC]*dG*dG*kT*kG*k[5mC]) [compound 798750] | – | 54
18 | 798751 (k[5mC]*k[5mC]*kG*dG*dG*d[5mC]*dA*dG*d[5mC]*dA*dG*dG*dA*kG*kG*k[5mC]; antisense) [compound 798751] | 0 | –
19 | 798752 (k[5mC]*kG*kG*d[5mC]*d[5mC]*dG*dG*dG*d[5mC]*dA*dG*d[5mC]*dA*kG*kG*kA; antisense) [compound 798752] | 0 | –

Row | Substance | % Inhibition [%] | % inhibition of SMAD7 mRNA expression [%]
20 | 798753 (kT*kG*k[5mC]*dA*dG*dT*d[5mC]*d[5mC]*dA*dG*dG*d[5mC]*dG*kG*k[5mC]*k[5mC]; antisense) [compound 798753] | 0 | –
21 | 798754 (kA*kG*k[5mC]*d[5mC]*dT*dG*d[5mC]*dA*dG*dT*d[5mC]*d[5mC]*dA*kG*kG*k[5mC]; antisense) [compound 798754] | 16 | –
22 | 798755 (kG*k[5mC]*k[5mC]*d[5mC]*dA*dG*d[5mC]*d[5mC]*dT*dG*d[5mC]*dA*dG*kT*k[5mC]*k[5mC]; antisense) [compound 798755] | 46 | –
23 | 798756 (k[5mC]*kG*k[5mC]*d[5mC]*d[5mC]*d[5mC]*d[5mC]*dG*dG*dG*d[5mC]*d[5mC]*d[5mC]*kA*kG*k[5mC]; antisense) [compound 798756] | 16 | –
24 | 798757 (kG*k[5mC]*kG*d[5mC]*dA*dG*dG*d[5mC]*dT*dG*d[5mC]*dG*d[5mC]*kG*k[5mC]*k[5mC]; antisense) [compound 798757] | 0 | –
25 | 798758 (kG*k[5mC]*kT*dG*d[5mC]*dG*d[5mC]*dA*dG*dG*d[5mC]*dT*dG*k[5mC]*kG*k[5mC]; antisense) [compound 798758] | – | 0
26 | 798759 (kG*kG*k[5mC]*dG*dG*d[5mC]*dT*dG*d[5mC]*dG*d[5mC]*dA*dG*kG*k[5mC]*kT; antisense) [compound 798759] | – | 40
27 | 798760 (kG*kA*kG*dG*dG*d[5mC]*dG*dG*d[5mC]*dT*dG*d[5mC]*dG*k[5mC]*kA*kG; antisense) [compound 798760] | – | 47
28 | 798761 (kG*kA*k[5mC]*dG*dA*dG*dG*dG*d[5mC]*dG*dG*d[5mC]*dT*kG*k[5mC]*kG; antisense) [compound 798761] | – | 39
29 | 798762 (kT*kA*kG*dG*dA*d[5mC]*dG*dA*dG*dG*dG*d[5mC]*dG*kG*k[5mC]*kT; antisense) [compound 798762] | – | 56
30 | 798763 (kG*kA*kG*dT*dA*dG*dG*dA*d[5mC]*dG*dA*dG*dG*kG*k[5mC]*kG; antisense) [compound 798763] | – | 53
31 | 798765 (kA*kA*k[5mC]*dA*d[5mC]*dT*dT*dT*dG*d[5mC]*dA*d[5mC]*dA*kG*k[5mC]*kA; antisense) [compound 798765] | – | 63
32 | 798766 (k[5mC]*kT*kG*dA*dA*d[5mC]*dA*d[5mC]*dT*dT*dT*dG*d[5mC]*kA*k[5mC]*kA; antisense) [compound 798766] | 34 | –
33 | 798767 (kT*k[5mC]*k[5mC]*dG*dG*d[5mC]*d[5mC]*dA*d[5mC]*d[5mC]*dT*dG*dA*kA*k[5mC]*kA; antisense) [compound 798767] | 0 | –
34 | 798768 (kG*kA*kG*dA*dT*d[5mC]*d[5mC]*dG*dG*d[5mC]*d[5mC]*dA*d[5mC]*k[5mC]*kT*kG; antisense) [compound 798768] | 42 | –
35 | 798769 (k[5mC]*k[5mC]*kT*dG*dA*dG*dA*dT*d[5mC]*d[5mC]*dG*dG*d[5mC]*k[5mC]*kA*k[5mC]; antisense) [compound 798769] | 58 | –
36 | 798770 (kA*kG*kG*dA*dA*dT*dG*d[5mC]*d[5mC]*dT*dG*dA*dG*kA*kT*k[5mC]; antisense) [compound 798770] | 47 | –
37 | 798771 (k[5mC]*k[5mC]*kG*dA*dG*dG*dA*dA*dT*dG*d[5mC]*d[5mC]*dT*kG*kA*kG; antisense) [compound 798771] | 62 | –
